According to the NIST ThermoML archive (doi:10.1021/je049652j):
Numbers after ± are expanded uncertainties.

Experiment: molar heat capacity at constant pressure
Conditions: 101.33 kPa, Liquid

Row | Compound | molar heat capacity at constant pressure (284.15 K) | molar heat capacity at constant pressure (286.65 K) | molar heat capacity at constant pressure (289.15 K) | molar heat capacity at constant pressure (291.65 K) | molar heat capacity at constant pressure (294.15 K) | molar heat capacity at constant pressure (296.65 K) | molar heat capacity at constant pressure (299.15 K) | molar heat capacity at constant pressure (301.65 K) | molar heat capacity at constant pressure (304.15 K) | molar heat capacity at constant pressure (306.65 K) | molar heat capacity at constant pressure (309.15 K) | molar heat capacity at constant pressure (311.65 K) | molar heat capacity at constant pressure (314.15 K) | molar heat capacity at constant pressure (316.65 K) | molar heat capacity at constant pressure (319.15 K) | molar heat capacity at constant pressure (321.65 K) | molar heat capacity at constant pressure (324.15 K) | molar heat capacity at constant pressure (326.65 K) | molar heat capacity at constant pressure (329.15 K) | molar heat capacity at constant pressure (331.65 K) | further results
1 | CCCCCCCCCBr [1-bromononane] | 302.55 ± 1.5 J/K/mol | 303.54 ± 1.5 J/K/mol | 304.62 ± 1.5 J/K/mol | 305.57 ± 1.5 J/K/mol | 306.69 ± 1.5 J/K/mol | 307.68 ± 1.5 J/K/mol | 308.8 ± 1.5 J/K/mol | 309.82 ± 1.6 J/K/mol | 310.95 ± 1.6 J/K/mol | 311.91 ± 1.6 J/K/mol | 313.01 ± 1.6 J/K/mol | 314.1 ± 1.6 J/K/mol | 315.18 ± 1.6 J/K/mol | 316.32 ± 1.6 J/K/mol | 317.44 ± 1.6 J/K/mol | 318.7 ± 1.6 J/K/mol | 319.8 ± 1.6 J/K/mol | 320.96 ± 1.6 J/K/mol | 322.16 ± 1.6 J/K/mol | 323.32 ± 1.6 J/K/mol | molar heat capacity at constant pressure (334.15 K): 324.63 ± 1.6 J/K/mol; molar heat capacity at constant pressure (336.65 K): 325 ± 1.6 J/K/mol; molar heat capacity at constant pressure (339.15 K): 326.99 ± 1.6 J/K/mol; molar heat capacity at constant pressure (341.65 K): 328.13 ± 1.6 J/K/mol; molar heat capacity at constant pressure (344.15 K): 329.39 ± 1.6 J/K/mol; molar heat capacity at constant pressure (346.65 K): 330.49 ± 1.6 J/K/mol; molar heat capacity at constant pressure (349.15 K): 331.79 ± 1.7 J/K/mol; molar heat capacity at constant pressure (351.65 K): 333.04 ± 1.7 J/K/mol; molar heat capacity at constant pressure (353.15 K): 333.74 ± 1.7 J/K/mol
2 | CCCCCBr [1-bromopentane] | 187.88 ± 0.94 J/K/mol | 188.46 ± 0.94 J/K/mol | 189.17 ± 0.95 J/K/mol | 189.85 ± 0.95 J/K/mol | 190.33 ± 0.95 J/K/mol | 190.94 ± 0.95 J/K/mol | 191.57 ± 0.96 J/K/mol | 192.17 ± 0.96 J/K/mol | 193.01 ± 0.97 J/K/mol | 193.53 ± 0.97 J/K/mol | 194.17 ± 0.97 J/K/mol | 194.86 ± 0.97 J/K/mol | 195.6 ± 0.98 J/K/mol | 196.21 ± 0.98 J/K/mol | 196.98 ± 0.98 J/K/mol | 197.61 ± 0.99 J/K/mol | 198.35 ± 0.99 J/K/mol | 199.09 ± 1 J/K/mol | 199.8 ± 1 J/K/mol | 200.47 ± 1 J/K/mol | molar heat capacity at constant pressure (334.15 K): 201.48 ± 1 J/K/mol; molar heat capacity at constant pressure (336.65 K): 201.57 ± 1 J/K/mol; molar heat capacity at constant pressure (339.15 K): 202.76 ± 1 J/K/mol; molar heat capacity at constant pressure (341.65 K): 203.58 ± 1 J/K/mol; molar heat capacity at constant pressure (344.15 K): 204.33 ± 1 J/K/mol; molar heat capacity at constant pressure (346.65 K): 205.07 ± 1 J/K/mol; molar heat capacity at constant pressure (349.15 K): 205.89 ± 1 J/K/mol; molar heat capacity at constant pressure (351.65 K): 206.69 ± 1 J/K/mol; molar heat capacity at constant pressure (353.15 K): 207.05 ± 1 J/K/mol
3 | CCCBr [1-bromopropane] | 131.2 ± 0.66 J/K/mol | 131.64 ± 0.66 J/K/mol | 132.01 ± 0.66 J/K/mol | 132.46 ± 0.66 J/K/mol | 132.78 ± 0.66 J/K/mol | 133.2 ± 0.67 J/K/mol | 133.64 ± 0.67 J/K/mol | 134 ± 0.67 J/K/mol | 134.55 ± 0.67 J/K/mol | 134.93 ± 0.67 J/K/mol | 135.35 ± 0.68 J/K/mol | 135.8 ± 0.68 J/K/mol | 136.23 ± 0.68 J/K/mol | 136.68 ± 0.68 J/K/mol | 137.16 ± 0.69 J/K/mol | 137.6 ± 0.69 J/K/mol | 138.11 ± 0.69 J/K/mol | 138.55 ± 0.69 J/K/mol |  |  | molar heat capacity at constant pressure (269.15 K): 129.02 ± 0.65 J/K/mol; molar heat capacity at constant pressure (271.65 K): 129.44 ± 0.65 J/K/mol; molar heat capacity at constant pressure (274.15 K): 129.78 ± 0.65 J/K/mol; molar heat capacity at constant pressure (276.65 K): 130.1 ± 0.65 J/K/mol; molar heat capacity at constant pressure (279.15 K): 130.48 ± 0.65 J/K/mol; molar heat capacity at constant pressure (281.65 K): 130.86 ± 0.65 J/K/mol
4 | CCCCCl [1-chlorobutane] | 156.22 ± 0.78 J/K/mol | 156.75 ± 0.78 J/K/mol | 157.28 ± 0.79 J/K/mol | 157.7 ± 0.79 J/K/mol | 158.27 ± 0.79 J/K/mol | 158.86 ± 0.79 J/K/mol | 159.48 ± 0.8 J/K/mol | 160.05 ± 0.8 J/K/mol | 160.5 ± 0.8 J/K/mol | 161.06 ± 0.81 J/K/mol | 161.59 ± 0.81 J/K/mol | 162.24 ± 0.81 J/K/mol | 162.92 ± 0.81 J/K/mol | 163.42 ± 0.82 J/K/mol | 164.11 ± 0.82 J/K/mol | 164.82 ± 0.82 J/K/mol | 165 ± 0.83 J/K/mol | 165.97 ± 0.83 J/K/mol | 166.72 ± 0.83 J/K/mol | 167.29 ± 0.84 J/K/mol | molar heat capacity at constant pressure (334.15 K): 167.78 ± 0.84 J/K/mol; molar heat capacity at constant pressure (336.65 K): 168.53 ± 0.84 J/K/mol; molar heat capacity at constant pressure (339.15 K): 169.12 ± 0.85 J/K/mol; molar heat capacity at constant pressure (341.65 K): 170.01 ± 0.85 J/K/mol; molar heat capacity at constant pressure (344.15 K): 170.43 ± 0.85 J/K/mol; molar heat capacity at constant pressure (346.65 K): 170.49 ± 0.85 J/K/mol; molar heat capacity at constant pressure (349.15 K): 171.5 ± 0.86 J/K/mol; molar heat capacity at constant pressure (351.65 K): 173.02 ± 0.87 J/K/mol; molar heat capacity at constant pressure (353.15 K): 173.09 ± 0.87 J/K/mol
5 | CCCCCCCCCCCl [1-chlorodecane] | 328.57 ± 1.6 J/K/mol | 329.82 ± 1.6 J/K/mol | 331 ± 1.7 J/K/mol | 332.01 ± 1.7 J/K/mol | 333.14 ± 1.7 J/K/mol | 334.13 ± 1.7 J/K/mol | 335.39 ± 1.7 J/K/mol | 336.61 ± 1.7 J/K/mol | 337.47 ± 1.7 J/K/mol | 338.66 ± 1.7 J/K/mol | 339.83 ± 1.7 J/K/mol | 341.39 ± 1.7 J/K/mol | 342.42 ± 1.7 J/K/mol | 343.41 ± 1.7 J/K/mol | 345.04 ± 1.7 J/K/mol | 346.36 ± 1.7 J/K/mol | 346.99 ± 1.7 J/K/mol | 348.75 ± 1.7 J/K/mol | 350.01 ± 1.8 J/K/mol | 351.31 ± 1.8 J/K/mol | molar heat capacity at constant pressure (334.15 K): 352.76 ± 1.8 J/K/mol; molar heat capacity at constant pressure (336.65 K): 353.39 ± 1.8 J/K/mol; molar heat capacity at constant pressure (339.15 K): 355.52 ± 1.8 J/K/mol; molar heat capacity at constant pressure (341.65 K): 356.17 ± 1.8 J/K/mol; molar heat capacity at constant pressure (344.15 K): 357.74 ± 1.8 J/K/mol; molar heat capacity at constant pressure (346.65 K): 358.38 ± 1.8 J/K/mol; molar heat capacity at constant pressure (349.15 K): 359.65 ± 1.8 J/K/mol; molar heat capacity at constant pressure (351.65 K): 361.49 ± 1.8 J/K/mol; molar heat capacity at constant pressure (353.15 K): 362.49 ± 1.8 J/K/mol
